According to BindingDB's records for doi:10.1016/j.bmcl.2018.10.045 (Merck, 2019):

Columns and labels:
[1] = Inhibition of NS5B polymerase in HCV genotype 2A infected in HuH7 cells after 40 hrs by Taqman probe based RT-PCR analysis
[2] = Inhibition of NS5B polymerase in HCV genotype 1a infected in HuH7 cells after 40 hrs by Taqman probe based RT-PCR analysis
[3] = Inhibition of NS5B polymerase in HCV genotype 2B infected in HuH7 cells after 40 hrs by Taqman probe based RT-PCR analysis
[4] = Inhibition of NS5B polymerase in HCV genotype 3A infected in HuH7 cells after 40 hrs by Taqman probe based RT-PCR analysis
[5] = Inhibition of NS5B polymerase in HCV genotype 4A infected in HuH7 cells after 40 hrs by Taqman probe based RT-PCR analysis
[6] = Inhibition of NS5B polymerase in HCV genotype 1b infected in HuH7 cells after 40 hrs by Taqman probe based RT-PCR analysis
[7] = Inhibition of NS5B polymerase S365A mutant in HCV genotype 1A infected in HuH7 cells after 40 hrs by Taqman probe based RT-PCR analysis
[8] = Inhibition of NS5B polymerase C316Y mutant in HCV genotype 1A infected in HuH7 cells after 40 hrs by Taqman probe based RT-PCR analysis
[9] = Inhibition of NS5B polymerase E1202G/T1280I/S2197P mutant in HCV genotype 2a infected in human HuH7 replicon cells after 72 hrs in presence of 10% FBS by luciferase-based reporter assay
[10] = Inhibition of NS5B polymerase E1202G/T1280I/S2197P mutant in HCV genotype 1a infected in human HuH7 replicon cells after 72 hrs in presence of 10% FBS by luciferase-based reporter assay
[11] = Inhibition of NS5B polymerase E1202G/T1280I/S2197P mutant in HCV genotype 1b infected in human HuH7 replicon cells after 72 hrs in presence of 10% FBS by luciferase-based reporter assay
[12] = Inhibition of NS5B polymerase E1202G/T1280I/S2197P mutant in HCV genotype 1b infected in human HuH7 replicon cells after 72 hrs in presence of 50% human serum by luciferase-based reporter assay

Structure (SMILES): CNC(=O)c1c(-c2ccc(F)cc2)oc2cc(N(C)S(C)(=O)=O)c(-c3cc4n(c(=O)c3)CCn3c-4cc4c(F)cccc43)cc12
- EC50 [1]: 11 nM
- EC50 [2]: 0.61 nM
- EC50 [3]: 2.2 nM
- EC50 [4]: 0.62 nM
- EC50 [5]: 1.5 nM
- EC50 [6]: 1.3 nM
- EC50 [7]: 6.4 nM
- EC50 [8]: 9.8 nM

Structure (SMILES): CNC(=O)c1c(-c2ccc(F)cc2)oc2cc(N(C)S(C)(=O)=O)c(-c3ccc4c(n3)-c3cc5c(F)cccc5n3CN4)cc12
- EC50 [1]: 5.7 nM
- EC50 [2]: 0.9 nM
- EC50 [3]: 2.9 nM
- EC50 [4]: 1 nM
- EC50 [5]: 1.1 nM
- EC50 [6]: 1.8 nM
- EC50 [7]: 3.1 nM
- EC50 [8]: 7.6 nM
- EC50 [9]: 6.4 nM
- EC50 [10]: 5.3 nM
- EC50 [11]: 5.3 nM
- EC50 [12]: 46 nM

Structure (SMILES): CNC(=O)c1c(-c2ccc(F)cc2)oc2cc(N(C)S(C)(=O)=O)c(-c3ccc4ncn5c6cccc(F)c6cc5c4n3)cc12
- EC50 [1]: 3.4 nM
- EC50 [2]: 0.68 nM
- EC50 [3]: 2.4 nM
- EC50 [4]: 1 nM
- EC50 [5]: 0.63 nM
- EC50 [6]: 1.4 nM
- EC50 [7]: 1 nM
- EC50 [8]: 3.1 nM
- EC50 [9]: 3.3 nM
- EC50 [10]: 2 nM
- EC50 [11]: 3.2 nM
- EC50 [12]: 16 nM

Structure (SMILES): CNC(=O)c1c(-c2ccc(F)cc2)oc2cc(N(C)S(C)(=O)=O)c(-c3ccc4c(n3)-c3cc5c(F)cccc5n3CCC4)cc12 [US9243002, 72]
- EC50 [1]: 6.8 nM
- EC50 [2]: 1.1 nM
- EC50 [3]: 6.5 nM
- EC50 [4]: 1.2 nM
- EC50 [5]: 1.5 nM
- EC50 [6]: 1.9 nM
- EC50 [7]: 16 nM
- EC50 [8]: 26 nM

Structure (SMILES): CNC(=O)c1c(-c2ccc(F)cc2)oc2cc(N(C)S(C)(=O)=O)c(-c3ccc4ccn5c6cccc(F)c6cc5c4n3)cc12 [US9243002, 82]
- EC50 [1]: 6.7 nM
- EC50 [2]: 0.95 nM
- EC50 [3]: 3.5 nM
- EC50 [4]: 1.2 nM
- EC50 [5]: 1.2 nM
- EC50 [6]: 2.6 nM
- EC50 [7]: 4.8 nM
- EC50 [8]: 11 nM
- EC50 [9]: 6.3 nM
- EC50 [10]: 2.9 nM
- EC50 [11]: 5.5 nM
- EC50 [12]: 30 nM

Structure (SMILES): CNC(=O)c1c(-c2ccc(F)cc2)oc2cc(N(C)S(C)(=O)=O)c(-c3ccc4c(n3)-c3cc5c(F)cccc5n3CC4)cc12 [US9243002, 85]
- EC50 [1]: 6 nM
- EC50 [2]: 0.86 nM
- EC50 [3]: 2.7 nM
- EC50 [4]: 1.1 nM
- EC50 [5]: 1.2 nM
- EC50 [6]: 2.1 nM
- EC50 [7]: 6.5 nM
- EC50 [8]: 8.4 nM
- EC50 [9]: 5.7 nM
- EC50 [10]: 3 nM
- EC50 [11]: 3.3 nM
- EC50 [12]: 13 nM

Structure (SMILES): CNC(=O)c1c(-c2ccc(F)cc2)oc2cc(N(C)S(C)(=O)=O)c(-c3ccc4c(n3)-c3cc5c(F)cccc5n3C4)cc12 [US9243002, 88]
- EC50 [1]: 8.5 nM
- EC50 [2]: 2.2 nM
- EC50 [3]: 3.9 nM
- EC50 [4]: 3 nM
- EC50 [5]: 2.7 nM
- EC50 [6]: 5.1 nM
- EC50 [7]: 34 nM
- EC50 [8]: 9.5 nM

Structure (SMILES): CNC(=O)c1c(-c2ccc(F)cc2)oc2cc(N(C)S(C)(=O)=O)c(-c3ccc4c(n3)-c3cc5c(F)cccc5n3CCCC4)cc12 [US9243002, 99]
- EC50 [1]: 26 nM
- EC50 [2]: 2 nM
- EC50 [3]: 3.8 nM
- EC50 [4]: 1.9 nM
- EC50 [5]: 3.5 nM
- EC50 [6]: 5.2 nM
- EC50 [7]: 42 nM
- EC50 [8]: 13 nM
